Assay [1] has as its system Phytophthora capsici (PHY). The assay is described as follows: In-vitro plant fungicide test. Type of assay: cell-based. The following applies: Phytophthora capsici; 25 ppm; Table IVa; read-out: % Control at 25 ppm PHY.
The test system of assay [2] is Staphylococcus aureus (SAUR). The assay is described as follows: Minimum inhibitory concentration (MIC), broth two-fold serial dilution test. The following applies: Staphylococcus aureus, read-out: MIC (G+) SAUR, M9G (minimal salts media with glucose).
For the next assay, the system named is Rhizoctonia solani (RHI). The assay is described as follows: In-vitro plant fungicide test. Type of assay: cell-based. To be noted: Rhizoctonia solani; 25 ppm; Table IVa; read-out: % Control at 25 ppm RHI.
The test system of a further assay is Septoria nodorum (SEP). The assay is described as follows: In-vitro plant fungicide test. To be noted: 25 ppm, Table IVa; for inhibition of growth at 25 ppm: Parastagonospora nodorum, read-out: % Control at 25 ppm SEP. The format is cell-based.
A further assay deals with Botrytis cinerea (BOC). The assay is described as follows: In-vitro plant fungicide test. The format is cell-based. The following applies: Botrytis cinerea, 25 ppm; Table IVa; *=Phytotoxic; read-out: % Control at 25 ppm BOC.
In another assay the test system is Piricularia oryzae (PIR). The assay is described as follows: microbe, parasite or virus in culture. The format is cell-based. The following applies: read-out: % Control at 25 ppm PIR.
Assay [3] deals with Aureobasidium pullulans (APUL). The assay is described as follows: Minimum inhibitory concentration (MIC), broth two-fold serial dilution test. Type of assay: cell-based. The following applies: Aureobasidium pullulans.
The next assay has as its system Fusarium roseum (FUS). The assay is described as follows: In-vitro plant fungicide test. The format is cell-based. To be noted: Table IVa, *=Phytotoxic; for inhibition of growth at 25 ppm: Fusarium sambucinum, read-out: % Control at 25 ppm FUS, 25 ppm.
The test system of assay [4] is Pseudomonas fluorescens (PSFL). The assay is described as follows: Minimum inhibitory concentration (MIC), broth two-fold serial dilution test. To be noted: Pseudomonas fluorescens, read-out: MIC (G-) PSFL, M9G (minimal salts media with glucose).
Another assay concerns Pythium ultimum (PYU). The assay is described as follows: In-vitro plant fungicide test. Type of assay: cell-based. The following applies: Globisporangium ultimum; 25 ppm; Table IVa; read-out: % Control at 25 ppm PYU.
The subject of another assay is THREE FUNGI. The assay is described as follows: MIC test against three fungi in Mycophile Broth, pH 5.0, read after 8 days (Table VII). The format is cell-based. The following applies: 192 h.
Assay [5] has as its system Cochliobolus sativus (HEL). The assay is described as follows: In-vitro plant fungicide test. Type of assay: cell-based. The following applies: Bipolaris sorokiniana, 25 ppm; Table IVa; *=Phytotoxic; read-out: % Control at 25 ppm HEL.
Assay [6] has as its system Pseudomonas aerugenosa (PSAE). The assay is described as follows: Minimum inhibitory concentration (MIC), broth two-fold serial dilution test. The following applies: Pseudomonas, read-out: MIC (G-) PSAE, M9G (minimal salts media with glucose).
Another assay deals with Escherichia coli (ECOL). The assay is described as above. The following applies: Escherichia coli, read-out: MIC (G-) ECOL, M9G (minimal salts media with glucose).
In assay [7] the test system is Xanthomonas campestris (XAN). The assay is described as follows: In-vitro plant fungicide test. To be noted: Xanthomonas campestris; 25 ppm; Table IVa; read-out: % Control at 25 ppm XAN. The format is cell-based.
The subject of the next assay is Aspergillus niger (ANIG). The assay is described as follows: Minimum inhibitory concentration (MIC), broth two-fold serial dilution test. The format is cell-based. The following applies: Aspergillus niger.
[8] abbreviates: M9G (minimal salts media with glucose), Table IIIa, read-out: MIC (F) APUL.
Where [9] appears, read: Aspergillus niger, serial dilutions from 50 ppm, read after 8 days of incubation, read-out: MIC ANIG.
Setting [10] is: Aureobasidium pullulans, serial dilutions from 50 ppm, read after 8 days of incubation, read-out: MIC APUL.
The mark [11] stands for this setting: Gloeophyllum trabeum, serial dilutions from 50 ppm, read after 8 days of incubation, read-out: MIC GTRA.
The mark [12] stands for this setting: M9G (minimal salts media with glucose), Table IIIa, read-out: MIC (F) ANIG.
[13] abbreviates: read-out: MIC (F) APUL, M9G (minimal salts media with glucose), Table IIIa.
The mark [14] stands for this setting: Aspergillus niger, pH 5, read-out: MIC ANIG, Aspergillus niger, serial dilutions from 50 ppm, read after 8 days of incubation.
Where [15] appears, read: Aureobasidium pullulans, pH 5, read-out: MIC APUL, Aureobasidium pullulans, serial dilutions from 50 ppm, read after 8 days of incubation.
[16] abbreviates: Gloeophyllum trabeum, pH 5, read-out: MIC GTRA, Gloeophyllum trabeum, serial dilutions from 50 ppm, read after 8 days of incubation.
Setting [17] is: read-out: MIC (F) ANIG, M9G (minimal salts media with glucose), Table IIIa.
Where [18] appears, read: Table IIIc, iodopropargyl esters of peptides.

Structures are written as SMILES. In brackets after ≈: the same amount, converted by molar mass. Structures can show the parent of a compound that is named as a salt. Where two headings read alike, the source gives them in different places. Where only a bound is given, the exact number is not on record here.

In general, MIC refers to the least concentration at which growth counts as inhibited.

On to `C[C@H](NC(=O)OC(C)(C)C)C(=O)OCC#CI` [Compound 2, N-t-butoxycarbonyl-L-alanine iodopropargyl ester], for which the inhibition of growth at 25 ppm (in assay [1]; with Rhizoctonia solani (RHI); in the assay on Septoria nodorum (SEP); in the assay on Botrytis cinerea (BOC); in the assay on Piricularia oryzae (PIR); with Fusarium roseum (FUS)) was 100% each time. The inhibition of growth at 25 ppm with Pythium ultimum (PYU) was 100%; in assay [5] it was 100%; in assay [7] it was 0%. Moreover, the MIC in assay [2] (Table IIIa) came out at 50 mg/L; in assay [3] (setting [8]), 3 mg/L; in assay [4] (Table IIIa), 50 mg/L; in the assay with THREE FUNGI (setting [9]), 3.2 mg/L (≈ 9.06 µM); in the assay with THREE FUNGI (setting [10]), 25 mg/L (≈ 70.8 µM); in the assay with THREE FUNGI (setting [11]), 1.6 mg/L (≈ 4.53 µM). The MIC is over 100 mg/L in assay [6] (Table IIIa), over 100 mg/L in the assay with Escherichia coli (ECOL) (Table IIIa) and 3 mg/L in the assay on Aspergillus niger (ANIG) (setting [12]).
With `CC(C)(C)OC(=O)N[C@@H](COCc1ccccc1)C(=O)OCC#CI` [Compound 3, N-t-butoxycarbonyl-O-benzyl-L-serine iodopropargyl ester], the inhibition of growth at 25 ppm in [1] turned out to be 100%; in the assay on Rhizoctonia solani (RHI), 100%; with Septoria nodorum (SEP), 100%; in the assay on Botrytis cinerea (BOC) it was 0%; in the assay on Piricularia oryzae (PIR), 100%; with Fusarium roseum (FUS), 100%. Besides, the inhibition of growth at 25 ppm in the assay on Pythium ultimum (PYU) worked out at 100%; in assay [5] it was 100%; in assay [7] it was 0%. Also, the MIC in assay [2] (Table IIIa) was 25 mg/L; in assay [3] (setting [8]) it was under 0.8 mg/L; in assay [4] (Table IIIa), over 100 mg/L; with THREE FUNGI (setting [9]), 25 mg/L (≈ 54.4 µM); with THREE FUNGI (setting [10]) it was 50 mg/L (≈ 109 µM); with THREE FUNGI (setting [11]), 3.2 mg/L (≈ 6.97 µM). The figures for the MIC (in [6] (Table IIIa); in the assay with Escherichia coli (ECOL) (Table IIIa); with Aspergillus niger (ANIG) (setting [12])) were over 100 mg/L, over 100 mg/L and 3 mg/L, respectively.
`CC(C)(C)OC(=O)N[C@@H](CSCc1ccccc1)C(=O)OCC#CI` [Compound 4, N-t-butoxycarbonyl-S-benzyl-L-cysteine iodopropargyl ester]: the inhibition of growth at 25 ppm in [1] was 100%; in the assay with Rhizoctonia solani (RHI) it was 100%; in the assay with Septoria nodorum (SEP), 100%; in the assay on Piricularia oryzae (PIR) it was 100%; in the assay with Fusarium roseum (FUS), 95%; in the assay with Pythium ultimum (PYU), 100%. Moreover, the inhibition of growth at 25 ppm in assay [7] was 0%. For the same compound, the MIC in assay [2] (Table IIIa) is 25 mg/L; in assay [3] (setting [8]), 3 mg/L; in assay [4] (Table IIIa) it was over 10 mg/L; in the assay on THREE FUNGI (setting [9]), 50 mg/L (≈ 105 µM); in the assay on THREE FUNGI (setting [10]) it was 50 mg/L (≈ 105 µM); with THREE FUNGI (setting [11]), 6.2 mg/L (≈ 13 µM). Further, the MIC was over 100 mg/L in assay [6] (Table IIIa), over 100 mg/L with Escherichia coli (ECOL) (Table IIIa) and 3 mg/L in the assay with Aspergillus niger (ANIG) (setting [12]). The “% Control at 25 ppm FUS” value in the assay with Fusarium roseum (FUS) (25 ppm) came out at 100%.
With `C[C@@H](OCc1ccccc1)[C@H](NC(=O)OC(C)(C)C)C(=O)OCC#CI` [Compound 5, N-t-butoxycarbonyl-O-benzyl-L-threonine iodopropargyl ester], the inhibition of growth at 25 ppm worked out at 50% in [1]; 100% with Rhizoctonia solani (RHI); 90% in the assay on Septoria nodorum (SEP); 100% in the assay with Piricularia oryzae (PIR); 95% in the assay on Fusarium roseum (FUS); 0% in the assay with Pythium ultimum (PYU). Further, the inhibition of growth at 25 ppm in [7] came out at 0%. Moreover, the MIC in assay [2] (Table IIIa) is 63 mg/L; in [3] (setting [8]), under 0.8 mg/L; in [4] (Table IIIa) it was over 100 mg/L; in the assay on THREE FUNGI (setting [9]) it was over 50 mg/L; in the assay on THREE FUNGI (setting [10]), over 50 mg/L; in the assay with THREE FUNGI (setting [11]), 6.2 mg/L (≈ 13.1 µM). In addition, the MIC was over 100 mg/L in assay [6] (Table IIIa), over 100 mg/L in the assay with Escherichia coli (ECOL) (Table IIIa) and 25 mg/L with Aspergillus niger (ANIG) (setting [12]). Further, the “% Control at 25 ppm SEP” value in the assay on Septoria nodorum (SEP) is 75%.
On to `N[C@@H](COCc1ccccc1)C(=O)OCC#CI` [Compound 9, O-benzyl-L-serine iodopropargyl ester trifluoroacetate], for which the inhibition of growth at 25 ppm (in [1]; in the assay on Rhizoctonia solani (RHI); with Septoria nodorum (SEP); in the assay with Botrytis cinerea (BOC); in the assay with Piricularia oryzae (PIR); in the assay on Fusarium roseum (FUS)) was 100% in each case. For the same compound, the inhibition of growth at 25 ppm came to 100% in the assay on Pythium ultimum (PYU), 100% in [5] and 0% in [7]. Moreover, the MIC is 500 mg/L in assay [2] (Table IIIa); under 4 mg/L in assay [3] (setting [13]); 25 mg/L in assay [4] (Table IIIa); 25 mg/L with THREE FUNGI (setting [14]); 50 mg/L with THREE FUNGI (setting [15]); 12.5 mg/L with THREE FUNGI (setting [16]). The figures for the MIC (in [6] (Table IIIa); with Escherichia coli (ECOL) (Table IIIa); in the assay on Aspergillus niger (ANIG) (setting [17])) were 125 mg/L, 64 mg/L and under 4 mg/L, respectively.
For `N[C@@H](CSCc1ccccc1)C(=O)OCC#CI` [Compound 10, S-benzyl-L-cysteine iodopropargyl ester trifluoroacetate], the inhibition of growth at 25 ppm is 100% in assay [1]; 100% in the assay with Rhizoctonia solani (RHI); 100% with Septoria nodorum (SEP); 0% in the assay on Botrytis cinerea (BOC); 100% in the assay on Piricularia oryzae (PIR); 100% with Fusarium roseum (FUS). Moreover, the inhibition of growth at 25 ppm was determined as 100% in the assay with Pythium ultimum (PYU), 50% in [5] and 0% in [7]. The MIC was over 100 mg/L in assay [2] (Table IIIa); 6.3 mg/L in [3] (setting [13]); over 100 mg/L in assay [4] (Table IIIa); 6.2 mg/L with THREE FUNGI (setting [14]); 12.5 mg/L in the assay on THREE FUNGI (setting [15]); 6.2 mg/L in the assay with THREE FUNGI (setting [16]). For the same compound, the values for the MIC (in assay [6] (Table IIIa); in the assay on Escherichia coli (ECOL) (Table IIIa); with Aspergillus niger (ANIG) (setting [17])) were 100 mg/L, over 100 mg/L and 3 mg/L, respectively.
On to `C[C@H](NC(=O)CNC(=O)OC(C)(C)C)C(=O)OCC#CI` [Compound 27, N-t-butoxycarbonylglycyl-L-alanine iodopropargyl ester], for which the MIC in [2] (setting [18]) was found to be 125 mg/L; in assay [3] (M9G (minimal salts media with glucose), Table IIIc, iodopropargyl esters of peptides, read-out: MIC (F) APUL), 8 mg/L; in [4] (setting [18]) it was 125 mg/L; in the assay on THREE FUNGI (setting [9]), 25 mg/L (≈ 60.9 µM); in the assay on THREE FUNGI (setting [10]), 50 mg/L (≈ 122 µM); with THREE FUNGI (setting [11]) it was 6.2 mg/L (≈ 15.1 µM). Besides, the MIC in assay [6] (setting [18]) was 250 mg/L; with Escherichia coli (ECOL) (setting [18]), 250 mg/L; with Aspergillus niger (ANIG) (M9G (minimal salts media with glucose), Table IIIc, iodopropargyl esters of peptides, read-out: MIC (F) ANIG), under 4 mg/L. Further, the inhibition of growth at 25 ppm in the assay with Rhizoctonia solani (RHI) was 100%; with Septoria nodorum (SEP), 100%; in the assay on Botrytis cinerea (BOC), 75%; with Piricularia oryzae (PIR) it was 0%; in the assay with Fusarium roseum (FUS), 100%; in the assay on Pythium ultimum (PYU) it was 100%. The inhibition of growth at 25 ppm in [5] was found to be 100%; in assay [7] it was 0%.

For the origin of these results see patent EP0414533A1, “Use of iodopropargyl esters of alpha-amino acid derivatives as antimicrobial agents” (ROHM AND HAAS COMPANY, priority 1989, dated 1991).
